Measured values reported in patent publication US10441540B2, “Liposomal lupeol acetate and the use thereof in preparing drugs for rheumatoid arthritis” (NATIONAL YANG-MING UNIVERSITY, priority 2014, dated 2019).

Legend:
RAW 264.7 cells = test: MTT cell viability of RAW 264.7 cells; format: cell-based; details: 2.5-10 nM, 24 hours
Protocol: RAW 264.7 cells (a mouse leukaemic monocyte macrophage cell line) were treated with solutions containing liposomal lupeol acetate (10 ? 20 ? 40 ? 80 μM) and NF-kB inhibitor QNZ (2.5 ? 5 ? 7.5 ? 10 nM), respectively, for 24 hours, then the viability was analyzed by MTT method, comparing to the results of the control group.
5×10^4 RAW264.7 cells/well were seeded in 96-well culture dishes, and treated with directed concentration of liposomal lupeol acetate and QNZ for 24 hours after the 24-hr attachment. After removing the culture medium, 100 μl of 0.5 mg/ml MTT solution was added, and the cells were incubated at 37° C. for 4 hours. The mitochondrial enzyme (succinate dehydrogenase, SDH) in living cells will react with tetrazolium bromide in the MTT solution and form formazan blue-purple crystals. The MTT solution was removed and 200 μl DMSO was added to dissolve the blue-purple crystal, and then the O.D. (optical density) value was read under wavelength of 570 nm on an ELISA reader (TECAN Sunrise, USA). The relative cell viability is calculated by comparing the absorbance value of drug treated group with that of the control group (setting the value of control group as 100%).

NFATc1 = NFATc1 expression by real-time Q-PCR under RANKL induction; format: cell-based; details: NF-κB inhibitor 5 nM
Excerpt: (§1) The cells were stained with tartrate-resistant acid phosphatase (TRAP) and observed by microscopy to assure the differentiation of osteoclast after the cultivation of five days (Bar=200 μm).
Next, the real time Q-PCR is used for analyzing the change of NFATc1 (nuclear factor of activated T cell, the major factor of osteoclast proliferation and known as cytoplasmic 1) under the RANKL induction and drug treatments.

IL-1β = test: Immunohistochemistry of IL-1β in leg joints of CIA mice; format: in vivo, mouse; details: 100 mg/kg LA or 50 mg/kg Lipo-LA, day 43, vs RA group
Excerpt: (§2) In FIG. 8A, mice were sacrificed at the end of the animal experiment (day 43), and the legs was removed for the immunohistochemistry (IHC) of TNF-α and IL-1β and H&E staining. The arrows in H&E images indicate the position of articular cavity. There is significant accumulation of TNF-α and IL-1β appeared in the RA group.
(§3) Observing the suppressive effects of Lipo-LA on joint inflammation using immunohistochemistry (IHC). […] The legs of mouse were removed and subjected to paraffin embedding and sectioning. The sections were stained with anti-TNF-α and anti-IL-1β antibodies, respectively to assess the distribution of inflammatory cytokines.

[1] = system: collagen-induced arthritis (CIA) in DBA/1J mice; test: Collagen-induced arthritis (CIA) animal model; details: oral daily
rheumatoid arthritis = details: US Patent Application no. 20120177754; 100 mg/kg, 12 days needed in mice; cited from earlier work
TNF-α = test: Immunohistochemistry of TNF-α in leg joints of CIA mice; format: in vivo, mouse; details: 100 mg/kg LA or 50 mg/kg Lipo-LA, day 43, vs RA group
Excerpt: as §2, §3

osteoclasts = test: TRAP staining of RANKL-induced osteoclast differentiation from macrophage; format: cell-based; details: 100 ng/ml RANKL, five days
Excerpt: as §1
To evaluate the effects of the liposomal lupeol acetate (Lipo-LA) of present invention on the suppression of rheumatoid arthritis, we firstly analyze the differentiation of osteoclasts from certain cells using the tartrate-resistant acid phosphatase (TRAP) staining method. The TRAP staining is used to detect the internal acid phosphatase activity of leukocytes in a blood, bone or tissue sample. Because osteoclasts contain acid phosphatase, we can use this staining method to determine the formation of osteoclast cells.
After removing the supernatant of culture, the cells are rinsed with PBS for two times, and then fixed with 3.7% paraformaldehyde for 1 hour. The fixed cells are washed with PBS. The Acid Phophatase Leukocyte kit (TRAP stain, Cat. 387-A, Sigma-Aldrich, USA) is used in the TRAP staining and the method is briefly described as follow. Before staining, the temperature of ddH2O used for adjuvant preparation is confirmed to be 37° C. The Fast Garnet GBC base and sodium nitrite solution at equal volumes are uniformly mixed for 30 seconds and incubated at room temperature for at least two minutes. […]

IL-10 = IL-10 in mouse hind leg proteins, Western blotting; details: 100 mg/kg LA or 50 mg/kg Lipo-LA, day 32
Protocol: (§4) The mice were sacrificed by cervical dislocation on the 32nd day of the animal experiment. The whole leg of mouse was removed, and the leg tissue was ground by adding an appropriate amount of lysis buffer (tissue protein extraction reagent, T-PER, Pierce Protein Biology Products, IL, USA), centrifuged at 15,000 rpm for 20 minutes, and the supernatant is taken as the sample for each group.
(§5) Meanwhile, we also use Western blotting to observe the proteins extracted from mouse hind legs, and observe the expression level of immunosuppression-related proteins TGF-β and IL-10 secreted from Treg cells.

[2] = system: inflammatory condition induced by carrageenan; details: Lucetti D L et al. J Inflamm 2010; cited from earlier work
TGF-β = TGF-β in mouse hind leg proteins, Western blotting; details: 100 mg/kg LA or 50 mg/kg Lipo-LA, day 32
Protocol: as §4, §5

[3] = 100 mg/kg LA or 50 mg/kg Lipo-LA, vs RA group

Compound | cell death of RAW264.7 cells (cell viability, MTT) (RAW 264.7 cells) | expression of NFATc1 (NFATc1) | IL-1β staining (IHC) in joint (IL-1β) | arthritis scores (highest 16 points per mouse) [1, 3] | foot swelling [1, 3] | incidence of arthritis [1, 3] | toxic effects judged by changes in body weight of mice ([1]; 100 mg/kg LA) | inhibiting inflammation and treatment of rheumatoid arthritis (rheumatoid arthritis) | TNF-α staining (IHC) in joint (TNF-α) | differentiation of osteoclast from macrophage (TRAP staining) (osteoclasts) | level of IL-10 (IL-10) | inflammatory condition induced by carrageenan in mice [2] | level of TGF-β (TGF-β)
Nc1ccc2ncnc(NCCc3ccc(Oc4ccccc4)cc3)c2c1 [QNZ] | does not cause significant cell death | reduces | – | – | – | – | – | – | – | – | – | – | –
Lupeol acetate [LA] | – | – | improvements | significantly less scores | significantly reduced | decreased incidence percentages | no toxic effects | significant therapeutic effect | improvements | inhibitory effects | rising trend | effectively mitigate | rising trend
